Active and inactive are the calls of the source. The rule behind the calls is not given here.
Tests used:
[1] = tested on: HeLa; assay: Induction of DNA damage in human HeLa cells at 30 uM assessed as increase in gamma-H2AX level and measured by DAPI staining method relative to control; assay type: functional, cell-based
[2] = tested on: HeLa; assay: Downregulation of GIT2 expression in POLE3 knocked down human HeLa cells and measured after 6 hrs; assay type: functional, cell-based
[3] = tested on: HeLa; assay: Induction of DNA damage in POLE3 knocked down human HeLa cells at 30 uM assessed as increase in gamma-H2AX level in presence of 30 uM etoposide and measured by DAPI staining method relative to control; assay type: functional, cell-based
[4] = Upregulation of POLE expression in POLE3 knocked down human HeLa cells and measured as fold change after 6 hrs; assay type: functional
[5] = tested on: HeLa; assay: Downregulation of GEMIN2 expression in POLE3 knocked down human HeLa cells and measured after 6 hrs; assay type: functional, cell-based
[6] = tested on: HeLa; assay: Downregulation of PEA15 expression in POLE3 knocked down human HeLa cells and measured after 6 hrs; assay type: functional, cell-based
[7] = tested on: HeLa; assay: Induction of DNA damage in human HeLa cells at 30 uM assessed as increase in gamma-H2AX level in presence of 30 uM etoposide and measured by DAPI staining method relative to control; assay type: functional, cell-based
[8] = biological target: T1, DNA polymerase epsilon subunit 3 (Homo sapiens) (UniProt Q9NRF9); assay: Binding affinity towards wild-type POLE3 overexpressed in human 293T cells measured after 1 hr by SDS-PAGE analysis; assay type: cell-based; settings: HEK293T
T1 sequence (whole entry): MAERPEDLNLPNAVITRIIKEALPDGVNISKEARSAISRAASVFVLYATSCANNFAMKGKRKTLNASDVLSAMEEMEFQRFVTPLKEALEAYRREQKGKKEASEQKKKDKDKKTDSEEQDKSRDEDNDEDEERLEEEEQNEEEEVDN

[9] = tested on: HeLa; assay: Downregulation of DNA ligase 3 expression in POLE3 knocked down human HeLa cells and measured after 6 hrs; assay type: functional, cell-based
[10] = tested on: MDA-MB-231; assay: Binding affinity to cysteine residues of protein in human MDA-MB-231 lysates at 30 uM incubated for 1 hr and measured by SDS-PAGE analysis; assay type: subcellular
[11] = tested on: MDA-MB-231; assay: Binding affinity to cysteine residue of protein in human MDA-MB-231 lysates at 30 uM incubated for 1 hr and measured in presence of cysteine-reactive reagent JW-RF-001 by SDS-PAGE analysis; assay type: subcellular

| Kinact [8] [min⁻¹] | Activity [10] | Activity [11] | SMILES | Activity [1] | Activity [2] | Activity [3] | fold change (FC) [4] | Activity [5] | Activity [6] | Activity [7] | Activity [9] |
| --- | --- | --- | --- | --- | --- | --- | --- | --- | --- | --- | --- |
| – | – | – | COc1cc([C@@H]2c3cc4c(cc3[C@@H](O[C@@H]3O[C@@H]5CO[C@@H](C)O[C@H]5[C@H](O)[C@H]3O)[C@H]3COC(=O)[C@H]23)OCO4)cc(OC)c1O | Active | – | – | – | – | – | – | – |
| 0.27 | – | – | C=C1C[C@@]2(C[C@H](C)[C@H]3CC=C(C)C(=O)[C@@H]3O2)OC1=O | inactive | Active | Active | 4 | Active | Active | Active | Active |
| – | Active | inactive | C=C1C[C@@]2(C[C@H](C)[C@H]3CC=C(CN=[N+]=[N-])C(=O)[C@@H]3O2)OC1=O | – | – | – | – | – | – | – | – |
